What all share (assay): DTP human tumour cell line panel, 48 h
Test [1] concerns 786-0 renal.
The test system of test [2] is A498 renal.
Test [3] concerns ACHN renal.
Test [4] deals with LOX IMVI melanoma.
Test [5] concerns MOLT-4 leukemia.
The test system of test [6] is NCI-H522 lung.
Test [7] deals with RXF 393 renal.
Test [8] concerns T-47D breast.
Test [9] relates to U251 CNS.
Test [10] has as its system UACC-62 melanoma.

In general, GI50 refers to the concentration giving 50% growth inhibition. The term TGI denotes the concentration giving total growth inhibition. Read a low TGI as more potent growth arrest.

Values joined by “and” are separate entries in the source; they are usually repeats but may differ in a detail not shown here. Identical values can stand only once.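 Results reflect a 48-hour exposure of cells in 96-well plates to compound at five concentrations. At the GI50, growth is halved. TGI: concentration producing complete growth inhibition.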 Where only a bound is given, the exact number is not on record here.

Take `Cc1c(-c2ccc(-c3ccccc3F)cc2)nc2ccc(F)cc2c1C(=O)O`: the GI50 in test [1] is 0.5 µM; in test [3] it was 0.617 µM and 1.67 µM; in test [4], 0.508 µM; in test [5], 0.5 µM; in [6], 9.89 µM and 67.3 µM; in test [7], 76 µM. The GI50 in test [8] is 10.2 µM and 79.5 µM; in [9], 0.0723 µM and 0.5 µM; in test [10], 0.5 µM. Also, the TGI in test [1] is 97.7 µM and 291 µM; in test [2], 181 µM and 647 µM; in [3] it was 181 µM and 492 µM; in [4], 31.2 µM and 71.3 µM; in test [5], 66.7 µM and 71.7 µM and 294 µM; in [6], 93.8 µM and 434 µM. Besides, the TGI was 121 µM and 236 µM in test [7]; 259 µM and 792 µM in [8]; 104 µM and 259 µM in [9]; 48.4 µM and 164 µM in test [10].

For `COC(=O)N[C@@H](C)CNc1nccc(-c2cn(C(C)C)nc2-c2cc(Cl)cc(NS(C)(=O)=O)c2F)n1`, the GI50 was 14.2 µM in test [1]; 0.336 µM in test [2]; 1.03 µM in [3]; 0.268 µM in [4]; 50.9 µM in test [5]; over 55.2 µM in test [6]. In addition, the figures for the GI50 in test [7], in [8] and in test [9] were 0.623 µM, over 100 µM and 59.5 µM, respectively. For the same compound, the TGI in test [1], in test [2], in [3], in [4], in test [5] and in [6] was over 100 µM in each case. Also, the figures for the TGI in test [7], in [8] and in [9] were 23.3 µM, over 100 µM and over 100 µM, respectively.

`CC(C)C(Br)C(=O)NCC(=O)O` (configuration not stated): the TGI in test [1], in [2], in [3], in test [4], in test [5] and in test [6] was over 100 µM throughout. Further, the TGI in [7], in test [8], in test [9] and in test [10] was over 100 µM each time.

Turning to `CC(=O)c1nc(-c2ccc(C[C@@H](CNC(=O)CN(C)C)NC(=O)c3ccc(OC(C)C)c(Cl)c3)cc2)cn1C`, the GI50 in test [1] was 0.0851 µM; in [2], 0.0407 µM; in [3], 1.01 µM; in test [4], 0.16 µM; in test [5] it was 0.0406 µM; in test [6], under 0.0181 µM. The GI50 in test [7] is 0.0628 µM; in [8], 0.0538 µM; in test [9], 0.0215 µM; in test [10], 0.0587 µM. Moreover, the TGI came out at 17.1 µM in test [1]; 2.04 µM in test [2]; 20.2 µM in test [3]; 16.5 µM in [4]; 15 µM in [5]; 13.8 µM in test [6]. Further, the TGI in test [7] turned out to be 16.6 µM; in test [8], 20.1 µM; in [9], 16.7 µM; in [10], 19.1 µM.

`CCOC(=O)C(Cc1cc(OC)c(CC(C(=O)OCC)C(=O)OCC)cc1OC)C(=O)OCC`: the TGI in test [1], in test [2], in test [3], in test [4], in [5] and in [6] was over 100 µM in each case. Moreover, the TGI in [7] is 97.7 µM; in [8], over 100 µM; in [9] it was over 100 µM; in test [10] it was over 100 µM.

Take `S=C(Nc1ccc(-c2nc3ccccc3s2)cc1)Nc1ccc(-c2nc3ccccc3s2)cc1`: the GI50 in test [1] is 28 µM; in test [3], 17.1 µM; in test [4] it was 15.2 µM; in test [5], 10.2 µM; in test [6] it was 11.2 µM; in test [7], 15.9 µM. Also, the GI50 in test [8] is 18.8 µM; in test [9], 17.2 µM; in [10], 15.7 µM. The TGI in test [1] was 83.2 µM; in test [3] it was 41 µM; in test [4], 30.5 µM; in test [5], over 100 µM; in test [6] it was 26.2 µM; in [7], 50.4 µM. Moreover, the TGI in [8] is over 100 µM; in [9], 41.6 µM; in test [10], 32 µM.

Consider `COc1c(OC2OC(C)C(O)C(O)C2O)c(OC)c2oc(-c3ccc(O)cc3)cc(=O)c2c1O` (configuration not stated), for which the GI50 was 50.7 µM in [1]; 35.4 µM in test [2]; 30.7 µM in test [3]; 27.9 µM in test [4]; 15.4 µM in [5]; 24.2 µM in test [6]. In addition, the GI50 in [7] is 23.8 µM; in test [8], 22.3 µM; in test [9], 30.2 µM; in test [10], 16.6 µM. The TGI was over 100 µM in test [1]; over 100 µM in test [2]; over 100 µM in [3]; over 100 µM in test [4]; over 100 µM in [5]; 64.5 µM in test [6]. In addition, the TGI in test [7] is 66.5 µM; in test [8] it was over 100 µM; in [9] it was over 100 µM; in [10], 38.4 µM.

For `Cc1cc(C)c(-c2c(O)c(Br)c(-c3c(C)cc(C)c(Br)c3C)c(O)c2Br)c(C)c1Br`, the GI50 is 3.74 µM in [1]; 4.67 µM in test [2]; 3.14 µM in [3]; 1.74 µM in test [4]; 2.39 µM in [5]; 1.67 µM in [6]. The GI50 is 2.27 µM in test [7], 1.7 µM in [8], 2.28 µM in [9] and 1.54 µM in [10]. For the same compound, the total growth inhibition concentration (TGI) in test [1] was 14.3 µM; in test [2], 20.5 µM; in test [3] it was 13 µM; in test [4], 3.39 µM; in [5] it was 13 µM; in [6], 3.6 µM. The TGI came to 7.31 µM in [7], 4.84 µM in [8], 8.54 µM in test [9] and 4.04 µM in test [10].

`CCOC(=O)/C=C/c1ccc([N+](=O)[O-])o1`: the GI50 in test [1] was 2.13 µM; in test [2] it was 21 µM; in [3], 1.75 µM; in [4], 1.55 µM; in test [5], 2.76 µM; in test [6], 1.34 µM. Besides, the GI50 in test [7] was 1.82 µM; in test [8], 5.55 µM; in test [9], 14.7 µM; in [10], 1.71 µM. The TGI in test [1] is 4.67 µM; in test [2], 48.8 µM; in test [3], 3.8 µM; in [4], 3.71 µM; in test [5], 13 µM; in test [6], 3.24 µM. The TGI was 3.86 µM in test [7], 25.9 µM in [8], 50.4 µM in [9] and 4.36 µM in [10].

Take `CSCc1ncc(-c2ccc(C(F)(F)F)cc2)c(NC2CCCCCC2)n1`: the GI50 in test [1], in test [2], in [3], in test [4], in [5] and in [7] was over 10 µM throughout. The GI50 in test [8], in test [9] and in test [10] was over 10 µM throughout. The TGI in test [1], in test [2], in [3], in test [4], in test [5] and in test [7] was over 10 µM each time. For the same compound, the TGI in test [8], in test [9] and in [10] was over 10 µM throughout.

For `O=C(CC1(O)CCCCC1)OC1CCCC1`, the TGI in test [1], in [2], in [3], in [4], in [6] and in test [7] was over 100 µM throughout. The concentration for total growth inhibition (TGI) in [8], in [9] and in test [10] was over 100 µM throughout.

Consider `CN1C2C=CC(=O)C1C(C#N)C2` (configuration not stated), for which the GI50 is 16.3 µM and 51.7 µM in [1]; 23.9 µM and 57.7 µM in test [7]; 23.6 µM in [9]. Besides, the TGI was 35.5 µM and > 100 µM in test [1]; over 100 µM in test [2]; over 100 µM in test [3]; over 100 µM in test [5]; 64.3 µM and > 100 µM in test [7]; 75.9 µM and > 100 µM in test [8]. Also, the TGI in test [9] and in [10] was over 100 µM in each case.

On to `O=C(OCC1=CC(=O)c2ccccc2C1=O)c1ccccc1`, for which the GI50 is 18.9 µM in test [1]; 18.6 µM in test [2]; 15 µM in test [3]; 5.69 µM in test [4]; 15 µM in test [6]; 13.6 µM in [7]. Also, the GI50 was 14.6 µM in [8], 14.6 µM in [9] and 3.27 µM in test [10]. The TGI in test [1] stood at 33.8 µM; in test [2], 36.8 µM; in test [3], 28.4 µM; in test [4] it was 21.5 µM; in [6], 28.6 µM; in [7], 26.5 µM. In addition, the values for the TGI in test [8], in test [9] and in test [10] were 42.3 µM, 28.5 µM and 9.02 µM, respectively.

As for `OC(Cc1cccc2ccccc12)CN1CCC(c2ccccc2)CC1` (configuration not stated), the TGI in [1] was found to be 28.3 µM; in test [3] it was 31.7 µM; in test [4], 29.5 µM; in test [6] it was 21.9 µM; in test [7], 23 µM; in test [8], 40.6 µM. Also, the TGI in test [9] is 26.2 µM; in [10] it was 28.9 µM.

In the case of `CCCCS(=O)(=O)c1cc(Nc2ccc(O)c3c2C(=O)c2ccccc2C3=O)ccc1C`, the GI50 in test [1] is over 100 µM; in [2], over 100 µM; in test [3], over 100 µM; in test [5], over 100 µM; in test [6], over 100 µM; in [7], 14.6 µM. The GI50 is over 100 µM in [8], 35.8 µM in test [9] and 2.77 µM in test [10]. The TGI in test [1], in test [2], in test [3], in test [5], in test [6] and in test [7] was over 100 µM in each case. Besides, the TGI in test [8], in test [9] and in [10] was over 100 µM throughout.

Take `CC(C)(O)c1cc(Nc2cc(Oc3cn(C4CC4)nc3C3CCOCC3)ccn2)ccn1`: the GI50 in test [1] is 53.1 µM; in test [2], 63.1 µM; in test [3], over 100 µM; in test [4], 35.1 µM; in [5], 91.7 µM; in test [6] it was 52.2 µM. The values for the GI50 in test [7], in test [8] and in [9] were 68.4 µM, 23.6 µM and over 100 µM, respectively. Moreover, the TGI in [1], in [2], in [3], in test [4], in test [5] and in test [6] was over 100 µM in each case. Further, the TGI in test [7], in [8] and in [9] was over 100 µM in each case.

In the case of `CCNc1ccc2c(c1)C(=O)N(OS(C)(=O)=O)C2=O`, the total growth inhibition concentration (TGI) in test [1] was over 100 µM; in test [2], over 100 µM; in test [3], over 100 µM; in test [4], over 100 µM; in [6], 34.8 µM; in [7] it was over 100 µM. Moreover, the TGI in test [8], in [9] and in test [10] was over 100 µM throughout.

In the case of `COC(=O)c1c(C(=O)O)c(-c2ccccc2)c(-c2ccccc2)c(-c2ccccc2)c1-c1ccccc1`, the GI50 was over 100 µM in [1]; over 100 µM in [3]; over 100 µM in [4]; over 100 µM in test [5]; 88.5 µM in [6]; over 100 µM in [7]. The values for the GI50 in [8], in test [9] and in test [10] were 75.7 µM, over 100 µM and over 100 µM, respectively. Also, the TGI in test [1], in test [3], in [4], in [5], in [6] and in test [7] was over 100 µM each time. Moreover, the concentration for total growth inhibition (TGI) in test [8], in test [9] and in test [10] was over 100 µM each time.

For the origin of these results see PubChem BioAssay (NCI).
